Experiment [1] concerns the target T1, Muscarinic acetylcholine receptor M4 (Homo sapiens, UniProt P08173).
T1 sequence (P08173 whole entry): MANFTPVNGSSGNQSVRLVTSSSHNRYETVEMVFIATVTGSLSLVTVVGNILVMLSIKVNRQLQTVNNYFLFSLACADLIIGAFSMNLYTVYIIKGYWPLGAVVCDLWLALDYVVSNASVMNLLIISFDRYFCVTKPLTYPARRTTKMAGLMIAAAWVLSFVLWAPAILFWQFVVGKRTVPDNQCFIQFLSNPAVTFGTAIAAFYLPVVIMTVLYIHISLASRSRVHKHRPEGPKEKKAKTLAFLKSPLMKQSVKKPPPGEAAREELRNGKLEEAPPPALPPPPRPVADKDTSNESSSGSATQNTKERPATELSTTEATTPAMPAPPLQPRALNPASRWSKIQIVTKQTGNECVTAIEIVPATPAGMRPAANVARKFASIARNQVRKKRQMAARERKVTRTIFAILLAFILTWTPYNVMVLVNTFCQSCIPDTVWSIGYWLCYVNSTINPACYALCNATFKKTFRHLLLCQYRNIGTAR
The experiment in a line: Antagonist activity at human M4 receptor expressed in HEK293T cells assessed as inhibition of carbachol-induced response by beta-arrestin engagement assay. The class given is cell-based, HEK-293T.

The target of experiment [2] is T2, Muscarinic acetylcholine receptor M1 (Homo sapiens, UniProt P11229).
T2 sequence (P11229 whole entry): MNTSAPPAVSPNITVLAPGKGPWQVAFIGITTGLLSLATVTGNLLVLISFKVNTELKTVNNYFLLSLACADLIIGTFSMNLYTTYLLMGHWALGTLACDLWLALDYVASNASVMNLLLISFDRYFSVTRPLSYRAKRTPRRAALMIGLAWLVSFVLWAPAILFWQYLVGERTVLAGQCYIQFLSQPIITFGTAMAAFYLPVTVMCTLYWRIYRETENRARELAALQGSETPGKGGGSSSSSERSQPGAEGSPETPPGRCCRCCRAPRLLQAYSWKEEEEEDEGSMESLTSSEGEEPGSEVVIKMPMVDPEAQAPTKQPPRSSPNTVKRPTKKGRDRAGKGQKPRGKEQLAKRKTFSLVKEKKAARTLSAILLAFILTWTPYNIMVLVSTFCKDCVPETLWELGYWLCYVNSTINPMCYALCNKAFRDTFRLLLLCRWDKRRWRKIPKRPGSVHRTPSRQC
The experiment is described as follows: Agonist activity at human M1 receptor expressed in HEK293T cells by BRET based beta-arrestin engagement assay. (In general: In BRET a luciferase serves as donor, and the signal depends on an acceptor being close.)

Experiment [3] concerns the target T1, Muscarinic acetylcholine receptor M4.
Experiment [4] concerns the target Muscarinic acetylcholine receptor M3 (Homo sapiens, UniProt P20309). The experiment is described as follows: Displacement of [3H]NMS from human M3 receptor expressed in CHO cells by microplate scintillation counting based radioligand binding assay. In kind it is cell-based. (Displacement assays read how much labelled ligand stays bound in the presence of the test substance.)

The target of experiment [5] is T1, Muscarinic acetylcholine receptor M4. The experiment is described as follows: Agonist activity at human M4 receptor expressed in HEK293T cells by BRET based Gq protein activation assay.
The target in experiment [6] is T2, Muscarinic acetylcholine receptor M1. The experiment in a line: Agonist activity at human M1 receptor expressed in HEK293T cells by BRET based Gq protein activation assay. The class given is cell-based, HEK-293T.
In experiment [7] the target is T1, Muscarinic acetylcholine receptor M4. The experiment is described as follows: Displacement of [3H]NMS from human M4 receptor expressed in CHO cells by microplate scintillation counting based radioligand binding assay. The class given is cell-based.
In experiment [8] the target is T2, Muscarinic acetylcholine receptor M1. The experiment is described as follows: Positive modulatory activity at human M1 receptor expressed in HEK293T cells assessed as effect on carbachol-induced response by BRET based Gq protein activation assay. The class given is cell-based, HEK-293T.
Experiment [9] addresses T3, Muscarinic acetylcholine receptor M1 (Homo sapiens) (UniProt P11229).
T3 sequence (whole entry): T2 sequence (P11229 whole entry)
The experiment in a line: Agonist activity at human M1 receptor expressed in HEK293T cells by BRET based Gq protein engagement assay relative carbachol. In kind it is cell-based. The conditions noted are these: HEK-293T.

The target of experiment [10] is T4, Muscarinic acetylcholine receptor M5 (Homo sapiens, UniProt P08912).
T4 sequence (P08912 whole entry): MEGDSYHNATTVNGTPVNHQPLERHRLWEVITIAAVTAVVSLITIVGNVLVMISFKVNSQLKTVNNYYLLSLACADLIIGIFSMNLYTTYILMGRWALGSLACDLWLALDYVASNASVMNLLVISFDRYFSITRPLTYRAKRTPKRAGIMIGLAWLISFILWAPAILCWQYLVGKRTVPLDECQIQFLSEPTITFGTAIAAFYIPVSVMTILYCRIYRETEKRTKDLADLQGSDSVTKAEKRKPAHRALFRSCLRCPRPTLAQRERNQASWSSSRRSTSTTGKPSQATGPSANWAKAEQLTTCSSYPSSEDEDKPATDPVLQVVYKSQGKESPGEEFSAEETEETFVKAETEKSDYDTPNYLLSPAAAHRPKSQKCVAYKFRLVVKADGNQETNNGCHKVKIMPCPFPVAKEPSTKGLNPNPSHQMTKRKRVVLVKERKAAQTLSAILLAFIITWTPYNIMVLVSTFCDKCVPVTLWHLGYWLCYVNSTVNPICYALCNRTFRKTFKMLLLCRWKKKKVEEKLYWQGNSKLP
The experiment in a line: Displacement of [3H]NMS from human M5 receptor expressed in CHO cells by microplate scintillation counting based radioligand binding assay. In kind it is cell-based.

Experiment [11] deals with T3, Muscarinic acetylcholine receptor M1 (Homo sapiens). The experiment in a line: Positive modulatory activity at human M1 receptor expressed in HEK293T cells assessed as effect on carbachol-induced response by BRET based Gq protein engagement assay relative to untreated control. The class given is cell-based. The conditions noted are these: HEK-293T.
Experiment [12] addresses T2, Muscarinic acetylcholine receptor M1.
Experiment [13] deals with T1, Muscarinic acetylcholine receptor M4. The experiment is described as follows: Antagonist activity at human M4 receptor expressed in HEK293T cells assessed as inhibition of xanomeline-induced response by BRET based Gq protein engagement assay. In kind it is cell-based, HEK-293T.
Experiment [14] has as its target T3, Muscarinic acetylcholine receptor M1 (Homo sapiens). The experiment is described as follows: Positive modulatory activity at human M1 receptor expressed in HEK293T cells assessed as effect on carbachol-induced response by BRET based Gq protein activation assay relative to untreated control. The class given is cell-based. The conditions noted are these: HEK-293T.

The target in experiment [15] is T1, Muscarinic acetylcholine receptor M4. The experiment is described as follows: Antagonist activity at human M4 receptor expressed in HEK293T cells assessed as inhibition of xanomeline-induced response by beta-arrestin engagement assay. In kind it is cell-based, HEK-293T.
In experiment [16] the target is T2, Muscarinic acetylcholine receptor M1. The experiment in a line: Displacement of [3H]NMS from human M1 receptor expressed in CHO cells by microplate scintillation counting based radioligand binding assay. In kind it is cell-based.
In experiment [17] the target is T1, Muscarinic acetylcholine receptor M4. The experiment is described as follows: Antagonist activity at human M4 receptor expressed in HEK293T cells assessed as inhibition of carbachol-induced response by BRET based Gq protein engagement assay. The class given is cell-based, HEK-293T.
Experiment [18] addresses T2, Muscarinic acetylcholine receptor M1. The source holds these as a separate data set.
Experiment [19] addresses T5, Muscarinic acetylcholine receptor M4 (Homo sapiens) (UniProt P08173).
T5 sequence (whole entry): T1 sequence (P08173 whole entry)
The experiment in a line: Antagonist activity at human M4 receptor expressed in HEK293T cells assessed as inhibition of xanomeline-induced response by beta-arrestin engagement assay relative to untreated control. In kind it is cell-based. The conditions noted are these: HEK-293T.

Experiment [20] has as its target T2, Muscarinic acetylcholine receptor M1. The experiment is described as follows: Positive modulatory activity at human M1 receptor expressed in HEK293T cells assessed as effect on carbachol-induced response by BRET based Gq protein engagement assay. The class given is cell-based, HEK-293T.
Experiment [21] has as its target T3, Muscarinic acetylcholine receptor M1 (Homo sapiens). The experiment is described as follows: Agonist activity at human M1 receptor expressed in HEK293T cells by BRET based beta-arrestin engagement assay relative to carbachol. In kind it is cell-based. The conditions noted are these: HEK-293T.
Experiment [22] deals with T5, Muscarinic acetylcholine receptor M4 (Homo sapiens). The experiment in a line: Agonist activity at human M4 receptor expressed in HEK293T cells by BRET based Gi protein activation assay relative to carbachol. The conditions noted are these: HEK-293T.

Molecules are shown by their SMILES. pEC50, pIC50, pKi: −log10 of the molar value.

Chain of Muscarinic acetylcholine receptor M3 (P20309 whole entry): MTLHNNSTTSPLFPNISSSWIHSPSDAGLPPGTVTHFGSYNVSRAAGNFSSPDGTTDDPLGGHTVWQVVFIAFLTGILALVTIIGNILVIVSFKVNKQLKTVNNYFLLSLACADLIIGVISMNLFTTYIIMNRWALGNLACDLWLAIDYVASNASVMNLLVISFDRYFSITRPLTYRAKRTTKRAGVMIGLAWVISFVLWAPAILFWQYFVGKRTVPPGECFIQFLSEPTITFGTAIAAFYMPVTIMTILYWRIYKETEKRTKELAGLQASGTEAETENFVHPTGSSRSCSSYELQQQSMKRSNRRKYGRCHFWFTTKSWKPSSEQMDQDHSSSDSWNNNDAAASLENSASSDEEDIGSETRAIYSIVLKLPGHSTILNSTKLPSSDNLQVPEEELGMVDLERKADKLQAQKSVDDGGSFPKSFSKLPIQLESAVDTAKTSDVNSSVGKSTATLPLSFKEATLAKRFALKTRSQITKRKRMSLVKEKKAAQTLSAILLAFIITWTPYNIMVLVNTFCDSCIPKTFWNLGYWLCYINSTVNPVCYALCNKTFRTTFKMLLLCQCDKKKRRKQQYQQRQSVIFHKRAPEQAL

Consider `CCCCC1CCN(CCCN2C(=O)CCc3ccccc32)CC1`, for which the pIC50 in experiment [1] is 6.75; in [3], 4.32; in experiment [12], 6.76; in [13], 3.92; in experiment [15] it was 5.12; in experiment [17] it was 5.65. In experiment [18], the pIC50 was 5.80. Moreover, the pEC50 was 6.08 in [2]; 6.56 in experiment [5]; 6.99 in experiment [6]; 6.72 in experiment [8]; 7.46 in experiment [20]. Also, the pKi is 5.92 in [4], 6.68 in [7], 5.27 in experiment [10] and 6.50 in [16]. The maximal response (Emax) in experiment [9] came out at 81%; in experiment [11] it was 101%; in experiment [14], 79%; in experiment [21], 32%; in [22] it was 46%. For the same molecule, the Imax in experiment [19] is 19%.

What is called pIC50 is the negative decadic logarithm of the IC50, by convention in mol/L. For orientation: pEC50 means −log10 of the EC50, conventionally taken in molar units. Usually pKi stands for the negative decadic logarithm of the Ki, by convention in mol/L. A high value points to a low Ki. One may read the Emax as the maximal effect, on the per cent scale that the assay sets.

Source of the values: ChEMBL document CHEMBL3351363 (J Med Chem, 2014).
